We go through 18 compounds from PubChem BioAssay AID248 (DTP/NCI, 2004).

Molecules are shown by their SMILES. Several values for one entry are separate records, joined by “and”; a condition that tells them apart may be missing. Identical values can stand only once. Inconclusive results and toxic doses are left out.

For this assay, the system named is L1210 leukemia ip in BDF1 mice, survival T/C. In words: NCI In Vivo Anticancer Drug Screen. Data for tumor model L1210 Leukemia (intraperitoneal) in B6D2F1 (BDF1) mice. The following applies: endpoint: mean survival time, higher = longer survival. The essentials: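 In this screen, tumor-bearing mice given compound are compared to those given vehicle, and their survival values are reported as a treated-to-control quotient.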

[1] abbreviates: dose: 100.0 mg/kg/injection, schedule: Q01DX009 (ip), vehicle: saline with Tween-80.
The mark [2] stands for this setting: dose: 100.0 mg/kg/injection, schedule: Q01DX001 (ip), vehicle: saline.
Where [3] appears, read: dose: 400.0 mg/kg/injection, schedule: Q01DX001 (ip), vehicle: saline.
Setting [4] is: dose: 100.0 mg/kg/injection, schedule: Q04DX003 (ip), vehicle: Klucel (hydroxypropylcellulose) (HPC).
The mark [5] stands for this setting: dose: 100.0 mg/kg/injection, schedule: Q01DX001 (ip), vehicle: other.
[6] abbreviates: dose: 100.0 mg/kg/injection, schedule: Q04DX003 (ip), vehicle: saline with Tween-80.
Where [7] appears, read: dose: 200.0 mg/kg/injection, schedule: Q01DX001 (ip), vehicle: other.
Where [8] appears, read: dose: 200.0 mg/kg/injection, schedule: Q04DX003 (ip), vehicle: saline with Tween-80.
[9] abbreviates: dose: 400.0 mg/kg/injection, schedule: Q04DX003 (ip), vehicle: saline with Tween-80.
Setting [10] is: dose: 200.0 mg/kg/injection, schedule: Q04DX003 (ip), vehicle: Klucel (hydroxypropylcellulose) (HPC).
Where [11] appears, read: dose: 400.0 mg/kg/injection, schedule: Q04DX003 (ip), vehicle: Klucel (hydroxypropylcellulose) (HPC).
The mark [12] stands for this setting: dose: 200.0 mg/kg/injection, schedule: Q01DX009 (ip), vehicle: saline with Tween-80.
The mark [13] stands for this setting: dose: 400.0 mg/kg/injection, schedule: Q01DX009 (ip), vehicle: saline with Tween-80.

In the case of `Nc1nc(Cl)c2[nH]cnc2n1`, the T/C was 110 % of control (dose: 0.25 mg/kg/injection, schedule: Q01DX009 (ip), vehicle: saline with Tween-80); 112 % of control (dose: 0.5 mg/kg/injection, schedule: Q01DX009 (ip), vehicle: saline with Tween-80); 117 % of control (dose: 1.0 mg/kg/injection, schedule: Q01DX009 (ip), vehicle: saline with Tween-80); 150 % of control (dose: 6.0 mg/kg/injection, schedule: Q01DX009 (ip), vehicle: saline with Tween-80); 112 % of control (dose: 8.8 mg/kg/injection, schedule: Q04DX003 (ip), vehicle: saline with Tween-80); 99 % of control (dose: 13.0 mg/kg/injection, schedule: Q01DX009 (ip), vehicle: Klucel (hydroxypropylcellulose) (HPC)). For the same compound, the T/C was 101 % of control (dose: 20.0 mg/kg/injection, schedule: Q01DX009 (ip), vehicle: Klucel (hydroxypropylcellulose) (HPC)); 101 % of control (dose: 30.0 mg/kg/injection, schedule: Q01DX009 (ip), vehicle: Klucel (hydroxypropylcellulose) (HPC)); 195 % of control (dose: 30.0 mg/kg/injection, schedule: Q04DX003 (ip), vehicle: saline with Tween-80); 94 % of control (dose: 37.5 mg/kg/injection, schedule: Q04DX009 (ip), vehicle: Klucel (hydroxypropylcellulose) (HPC)); 100 % of control (dose: 44.0 mg/kg/injection, schedule: Q01DX009 (ip), vehicle: Klucel (hydroxypropylcellulose) (HPC)); 107 % of control (dose: 50.0 mg/kg/injection, schedule: Q01DX009 (ip), vehicle: saline with Tween-80). Besides, the T/C runs as follows: (dose: 66.0 mg/kg/injection, schedule: Q01DX009 (ip), vehicle: Klucel (hydroxypropylcellulose) (HPC)) 104 % of control; (dose: 75.0 mg/kg/injection, schedule: Q04DX009 (ip), vehicle: Klucel (hydroxypropylcellulose) (HPC)) 104 % of control; under setting [1], 124 % of control; (dose: 150.0 mg/kg/injection, schedule: Q04DX009 (ip), vehicle: Klucel (hydroxypropylcellulose) (HPC)) 97 % of control.

Regarding `CCOC(C)(NCc1ccccc1)OCC`, the T/C runs as follows: (dose: 25.0 mg/kg/injection, schedule: Q04DX002 (ip), vehicle: Klucel (hydroxypropylcellulose) (HPC)) 86 % of control; (dose: 50.0 mg/kg/injection, schedule: Q04DX002 (ip), vehicle: Klucel (hydroxypropylcellulose) (HPC)) 111 % of control.

For the compound `C1=C(c2ccccc2)CC(/C=C/c2ccccc2)(c2ccccc2)C1c1ccccc1` (stereo not drawn), under setting [1], the T/C was 87 % of control.

`Nn1c(=S)[nH]n2cnnc12`: the T/C was 98 % of control (dose: 100.0 mg/kg/injection, schedule: Q01DX001 (ip), vehicle: carboxymethylcellulose (CMC)); 106 % of control (dose: 200.0 mg/kg/injection, schedule: Q01DX001 (ip), vehicle: carboxymethylcellulose (CMC)); 95 % of control (dose: 400.0 mg/kg/injection, schedule: Q01DX001 (ip), vehicle: carboxymethylcellulose (CMC)).

For the compound `CC(C)OP(=O)(CCCCCCCCCCP(=O)(OC(C)C)OC(C)C)OC(C)C`, the T/C (dose: 100.0 mg/kg/injection, schedule: Q04DX002 (ip), vehicle: saline) is 113 % of control; the T/C (dose: 200.0 mg/kg/injection, schedule: Q04DX002 (ip), vehicle: saline) is 102 % of control; the T/C (dose: 400.0 mg/kg/injection, schedule: Q04DX002 (ip), vehicle: saline) is 98 % of control.

As to `COc1cccc(/C=N\NC(=O)CCCC(=O)N/N=C/c2cccc(OC)c2)c1`, the T/C reads like this: (dose: 50.0 mg/kg/injection, schedule: Q01DX001 (ip), vehicle: saline) 87 % of control; under setting [2], 90 % of control; under setting [3], 103 % of control.

In the case of `COC(=O)C(CSC(=O)c1ccccc1)NC(=O)c1ccccc1` (stereo not drawn), the T/C by setting is: (dose: 25.0 mg/kg/injection, schedule: Q04DX003 (ip), vehicle: Klucel (hydroxypropylcellulose) (HPC)) 100 % of control; (dose: 50.0 mg/kg/injection, schedule: Q04DX003 (ip), vehicle: Klucel (hydroxypropylcellulose) (HPC)) 110 % of control; (dose: 100.0 mg/kg/injection, schedule: Q01DX001 (ip), vehicle: Klucel (hydroxypropylcellulose) (HPC)) 97 % of control; under setting [4], 100 % of control; (dose: 200.0 mg/kg/injection, schedule: Q01DX001 (ip), vehicle: Klucel (hydroxypropylcellulose) (HPC)) 100 % of control; (dose: 400.0 mg/kg/injection, schedule: Q01DX001 (ip), vehicle: Klucel (hydroxypropylcellulose) (HPC)) 101 % of control.

Regarding `O=S(=O)(NCCCl)c1ccc(Br)cc1`, the T/C was 101 % of control under setting [5]; 95 % of control under setting [6]; 90 % of control under setting [7]; 103 % of control under setting [8]; 101 % of control (dose: 400.0 mg/kg/injection, schedule: Q01DX001 (ip), vehicle: other); 97 % of control under setting [9].

For `CCCCN(CCCC)CCSc1c(Cl)c(Cl)c(Cl)c(Cl)c1Cl`, the T/C by setting is: (dose: 320.0 mg/kg/injection, schedule: Q01DX Z (ip), vehicle: saline) 99 % of control; (dose: 480.0 mg/kg/injection, schedule: Q01DX Z (ip), vehicle: saline) 90 % of control.

Regarding `O=C1c2cccnc2C(=O)N1Cc1ccccc1`, the T/C runs as follows: (dose: 100.0 mg/kg/injection, schedule: Q01DX009 (ip), vehicle: saline sonified) 103 % of control; under setting [4], 107 % of control; (dose: 200.0 mg/kg/injection, schedule: Q01DX009 (ip), vehicle: saline sonified) 96 % of control; under setting [10], 103 % of control; (dose: 400.0 mg/kg/injection, schedule: Q01DX009 (ip), vehicle: saline sonified) 102 % of control; under setting [11], 102 % of control.

As to `O=C(O)CNC(=O)/C(=C\c1[nH]c(=O)[nH]c(=O)c1Br)NC(=O)c1ccccc1`, the T/C reads like this: under setting [1], 92 % of control; under setting [6], 104 % of control; under setting [12], 91 % of control; under setting [8], 104 % of control; under setting [13], 96 % of control; under setting [9], 107 % of control.

`COC(=O)C1(CN(C)C)CCCC(CN(C)C)(C(=O)OC)C1=O` (stereo not drawn): the T/C was 100 % of control and 106 % of control (dose: 50.0 mg/kg/injection, schedule: Q01DX Z (ip), vehicle: carboxymethylcellulose (CMC)); 106 % of control and 109 % of control (dose: 75.0 mg/kg/injection, schedule: Q01DX Z (ip), vehicle: carboxymethylcellulose (CMC)); 113 % of control (dose: 115.0 mg/kg/injection, schedule: Q01DX Z (ip), vehicle: carboxymethylcellulose (CMC)); 106 % of control and 113 % of control (dose: 160.0 mg/kg/injection, schedule: Q01DX Z (ip), vehicle: carboxymethylcellulose (CMC)).

Turning to `Nc1c(Br)cc(Br)cc1C(=O)O`, the T/C is 97 % of control under setting [5] and 97 % of control under setting [7].

Take `CN1C(=O)C(Br)C(C)(Br)c2ccccc21` (stereo not drawn): the T/C under setting [2] is 93 % of control; the T/C (dose: 200.0 mg/kg/injection, schedule: Q01DX001 (ip), vehicle: saline) is 101 % of control; the T/C under setting [3] is 92 % of control.

Take `CCc1cc(C)cc(OC(=O)Nc2ccc(Cl)c(Cl)c2)c1`: the T/C was 97 % of control under setting [1]; 91 % of control under setting [4]; 92 % of control under setting [12]; 90 % of control under setting [10]; 94 % of control under setting [13]; 91 % of control under setting [11].

`Cc1ccc(NCN2C(=O)c3ccccc3C2=O)c(C)c1`: the T/C was 105 % of control under setting [4], 106 % of control under setting [10] and 94 % of control under setting [11].

On to `CC(C)(O)C(O)CC1=C(O)c2ccccc2C(=O)C1=O` (stereo not drawn), for which the T/C is 106 % of control (dose: 100.0 mg/kg/injection, schedule: Q01DX001 (ip), vehicle: water); 97 % of control (dose: 200.0 mg/kg/injection, schedule: Q01DX001 (ip), vehicle: water); 93 % of control (dose: 400.0 mg/kg/injection, schedule: Q01DX001 (ip), vehicle: water).

For the compound `Cc1ncc2c(=O)[nH]ccn12`, the T/C (dose: 100.0 mg/kg/injection, schedule: Q04DX003 (ip), vehicle: water) was 103 % of control; the T/C (dose: 200.0 mg/kg/injection, schedule: Q04DX003 (ip), vehicle: water) is 103 % of control; the T/C (dose: 400.0 mg/kg/injection, schedule: Q04DX003 (ip), vehicle: water) is 103 % of control.
